Data set [1] concerns NEP and each of the studied mutants. Nature of the data set: Inhibition of Glut-Ala-Ala-Phe-MNA hydrolysis by NEP inhibitors. The format is biochemical, human. How it is done:
Reactions of 400 µl contained 100 µM Glut-Ala-Ala-Phe-MNA, 1 µg of aminopeptidase and 15 to 100 ng of NEP or mutant NEP depending on their activity in 20 mM MES buffer, pH 6.5. Activity was monitored with a Spectra Max Gemini XS plate reader using an excitation wavelength of 340 nm and an emission wavelength of 425 nm.

In data set [2] the test system is NEP. Nature of the data set: Degradation of peptide substrates by NEP: extent and cleavage sites (HPLC, mass spectrometry). Particulars: for Cleavage site (bond cleaved): NEP and mutants, 20 mM MES pH 6.5, 37°C. How it is done: Degradation of insulin B chain by wild-type NEP was analyzed by reverse-phase HPLC following the appearance of each product as a function of time, Figure 1 . Product peaks were collected and subsequently analyzed by mass spectrometry to determine their identities. […] Based on the order of appearance of each peak, it is likely that insulin B chain1–10, insulin B chain1–11, insulin B chain1–14 and its partner peak insulin B chain15–30, insulin B chain17–30, and insulin B chain24–30 are all products of primary cleavages. These products appear at the first time point when approximately 15% hydrolysis of insulin B chain had occurred (30 minutes). At 30% hydrolysis (90 min.), peaks corresponding to insulin B chain1–5 and insulin B chain17–24 are observed. Peaks for insulin B chain1–16 and insulin B chain15–23 become apparent at >30% insulin B chain hydrolysis. […] It is likely that these are transient products that are subsequently cleaved contributing to other product peaks (i.e. insulin B chain24–30).
To further study the effect of mutations on cleavage site specificity, time course assays were also performed for the hydrolysis of the physiological substrate Aß1–40. Like the analysis of insulin B chain, a time course assay was first done with NEP to identify cleavage products, Figure 3 and Table 6 . After 15% hydrolysis of Aß1–40 (150 min.) by NEP there were six discernable product peaks corresponding to Aß1–16, Aß1–17, Aß10–17, Aß20–28, Aß20–29, and Aß20–30. […]
Cleavage of physiological peptides was measured via reverse phase high performance liquid chromatography (HPLC) following incubation of the purified NEP or its mutants with 15 µM insulin B chain (Sigma Aldrich), 24 µM Aß1–40 (Anaspec), or 64 µM leu-ENK (Sigma) in 100 µL of 20 mM MES, pH 6.5, at 37°C. […] Peptides and hydrolysis products were detected at 214 nm and quantified by measuring peak areas. Peptides obtained from HPLC were analyzed on an Applied Biosystems 4800 MALDI TOF/TOF Proteomics Analyzer at the University of Kentucky Proteomics core. […]

Data set [3] deals with NEP. Particulars: cited from earlier work.
Text: Two other studies have identified NEP cleavage sites within Aß1–40 [25], [26].

On to `CC(C)C[C@H](NP(=O)(O)O[C@@H]1O[C@@H](C)[C@H](O)[C@@H](O)[C@H]1O)C(=O)N[C@@H](Cc1c[nH]c2ccccc12)C(=O)O` [phosphoramidon], for which the “Inhibition of Glut-Ala-Ala-Phe-MNA hydrolysis” value in data set [1] (inhibitor at 100 µM) is listed as “completely inhibited”. For the compound “glutaryl-Ala-Ala-Phe-4-methoxy-2-naphthylamide [Glut-Ala-Ala-Phe-MNA, fluorogenic peptide substrate]”, in data set [2], the “Cleavage site (bond cleaved)” value was “Ala-Phe peptide bond”. For `O=C(O)CCNC(=O)[C@H](Cc1ccc(-c2ccccc2)cc1)NCP(=O)(O)O` [CGS 24592], in data set [1] (inhibitor at 10 nM), the “Inhibition of Glut-Ala-Ala-Phe-MNA hydrolysis” value was “completely inhibited”. For “Tyr-Gly-Gly-Phe-Leu [leu-ENK, leucine^5-enkephalin, leucine5-enkephalin (Tyr-Gly-Gly-Phe-Leu), physiological substrate]”, the “Cleavage site (bond cleaved)” value in data set [2] is reported as “Gly-Phe bond”. On to “Aß1–40: amyloid beta peptide 1–40, physiological substrate (Anaspec)”, for which the “Additional unreported cleavage sites detected in Aß1–40” value in data set [2] was “E^11-V^12, K^16-L^17, and L^17-V^18”. In data set [3], the “Cleavages of Aß1–40 detected by Leissring et al.” value is “Cleavages at K^28-G^29 and G^29-A^30”; the “Cleavages of Aß1–40 detected in two other studies and the current study” value was “G^9-Y^10, F^19-F^20, and A^30-I^31”.

These data come from paper PMC3285688, “Active Site Mutations Change the Cleavage Specificity of Neprilysin” (PLoS ONE, 2012).
